Laboratory results from the supplement of paper PMC10307832.

What was measured:
Assay in all cases: relative viability (nuclei count vs DMSO), 5 days (fraction); higher = more cells survive
Tosedostat + Bortezomib = compound: CC(C)C[C@@H](C(=O)N[C@H](C(=O)OC1CCCC1)c1ccccc1)[C@H](O)C(=O)NO [Tosedostat] + CC(C)C[C@H](NC(=O)[C@H](Cc1ccccc1)NC(=O)c1cnccn1)B(O)O [Bortezomib] (partner 0.002 µM)
Summary of the method: (§1)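 A single step with final 0.05% Triton X-100, 1% formaldehyde and 1 ug/ml Hoechst fixed the cells and stained nuclei 5 days after treatment. Lung cancer cell lines in 1536-well plates had been treated by pin tool the day after seeding with one drug alone or a fixed anchor-drug dose plus five library-drug doses (not always all listed) in √10 steps, and nuclei were counted on 4× images. Relative viability is the ratio of nuclei in treated wells to nuclei in vehicle wells, taken as the median of duplicate plates.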

[1] = compound: CC1=NN=C(O1)C2=NN=C(C=C2)N3CCC(CC3)OC4=C(C=CC(=C4)F)Cl + Cc1nc(Nc2ncc(C(=O)Nc3c(C)cccc3Cl)s2)cc(N2CCN(CCO)CC2)n1 [Dasatinib] (partner 0.075 µM)
Summary of the method: as §1

Tosedostat + Linsitinib = compound: CC(C)C[C@@H](C(=O)N[C@H](C(=O)OC1CCCC1)c1ccccc1)[C@H](O)C(=O)NO [Tosedostat] + C[C@]1(O)C[C@@H](c2nc(-c3ccc4ccc(-c5ccccc5)nc4c3)c3c(N)nccn32)C1 [Linsitinib] (partner 1 µM)
Summary of the method: as §1

[2] = compound: CC1=NN=C(O1)C2=NN=C(C=C2)N3CCC(CC3)OC4=C(C=CC(=C4)F)Cl + CC(=O)c1c(C)c2cnc(Nc3ccc(N4CCNCC4)cn3)nc2n(C2CCCC2)c1=O [Palbociclib] (partner 0.5 µM)
Summary of the method: as §1

| Cell Line | relative viability (Tosedostat + Bortezomib; first compound 0.02 µM) | relative viability (Tosedostat + Bortezomib; first compound 0.06325 µM) | relative viability (Tosedostat + Bortezomib; first compound 0.2 µM) | relative viability (Tosedostat + Bortezomib; first compound 0.6325 µM) | relative viability (Tosedostat + Bortezomib; first compound 2 µM) | relative viability ([1]; first compound 0.253 µM) | relative viability ([1]; first compound 0.8 µM) | relative viability ([1]; first compound 2.53 µM) | relative viability ([1]; first compound 8 µM) | relative viability (Tosedostat + Linsitinib; first compound 0.02 µM) | relative viability (Tosedostat + Linsitinib; first compound 0.06325 µM) | relative viability (Tosedostat + Linsitinib; first compound 0.2 µM) | relative viability (Tosedostat + Linsitinib; first compound 0.6325 µM) | relative viability (Tosedostat + Linsitinib; first compound 2 µM) | relative viability ([2]; first compound 0.253 µM) | relative viability ([2]; first compound 0.8 µM) | relative viability ([2]; first compound 2.53 µM) | relative viability ([2]; first compound 8 µM) |
| --- | --- | --- | --- | --- | --- | --- | --- | --- | --- | --- | --- | --- | --- | --- | --- | --- | --- | --- |
| NCI-H1915 | 1.03 | 0.942 | 1.01 | 0.956 | 0.946 | 0.324 | 0.257 | 0.311 | 0.285 | 1.16 | 1.11 | 1.11 | 1.1 | 0.961 | 0.385 | 0.291 | 0.319 | 0.266 |
| NCI-H1975 | 0.427 | 0.454 | 0.36 | 0.347 | 0.304 | – | 0.361 | 0.581 | 0.546 | 0.958 | 0.988 | 0.939 | 0.754 | 0.769 | 0.2 | 0.363 | 0.517 | 0.411 |
| NCI-H1993 | 1.02 | 1.22 | 0.852 | 0.872 | 0.642 | 0.537 | 0.564 | 0.768 | 0.549 | 0.669 | 0.698 | 0.742 | 0.703 | 0.629 | 0.523 | 0.579 | 0.644 | 0.603 |
| NCI-H2009 | 1.3 | 1.02 | 0.971 | 0.926 | 0.728 | 0.309 | 0.289 | 0.307 | 0.327 | 1.2 | 1.12 | 1.17 | 0.881 | 1.02 | 0.175 | 0.204 | 0.156 | 0.158 |
| NCI-H2023 | 0.961 | 0.965 | 0.888 | 0.649 | 0.817 | 0.429 | 0.442 | 0.476 | 0.402 | 0.659 | 0.619 | 0.594 | 0.65 | 0.587 | 0.28 | 0.277 | 0.233 | 0.199 |
| NCI-H2085 | 1.22 | 1.14 | 1.07 | 1.03 | 0.977 | 0.303 | 0.234 | 0.255 | 0.227 | 0.935 | 0.889 | 0.724 | 0.838 | 0.836 | 0.425 | 0.431 | 0.469 | 0.37 |
| NCI-H2087 | 0.902 | 0.795 | 0.802 | 0.703 | 0.688 | 0.597 | 0.458 | 0.581 | 0.515 | 1 | 0.969 | 0.951 | 1 | 0.886 | 0.239 | 0.262 | 0.21 | 0.195 |
| NCI-H2126 | 1.13 | 1.14 | 1.14 | 1.08 | 1.03 | 0.526 | 0.635 | 0.616 | 0.611 | 0.586 | 0.682 | 0.778 | 0.677 | 0.623 | 0.368 | 0.338 | 0.326 | 0.353 |
| NCI-H2228 | 1.33 | 0.948 | 0.827 | 0.896 | 0.744 | 0.555 | 0.412 | 0.537 | 0.405 | 0.792 | 0.63 | 0.686 | 0.612 | 0.525 | 0.675 | 0.394 | 0.681 | 0.538 |
| NCI-H2347 | 1.25 | 1.36 | 1.35 | 1.05 | 0.694 | – | 0.343 | 0.33 | 0.277 | 0.989 | 0.967 | 0.992 | 0.949 | 0.975 | 0.459 | 0.43 | 0.411 | 0.386 |
| NCI-H2405 | 1.04 | 0.949 | 1 | 0.937 | 0.883 | 0.199 | 0.207 | 0.179 | 0.181 | 0.883 | 0.963 | 0.925 | 0.965 | 0.862 | 0.319 | 0.349 | 0.332 | 0.346 |
| NCI-H3122 | 1.02 | 1.03 | 1.1 | 1.05 | 1.02 | 0.283 | 0.313 | 0.28 | 0.23 | 0.993 | 1 | 1.01 | 1.02 | 1.04 | 0.191 | 0.201 | 0.183 | 0.221 |
| PC-3 [JPC-3] | 0.819 | 0.771 | 0.823 | 0.776 | 0.552 | 0.944 | 0.813 | 0.877 | 0.852 | 1.03 | 1 | 1 | 0.946 | 0.653 | 0.507 | 0.538 | 0.537 | 0.551 |
| PC-14 | 0.79 | 0.814 | 0.896 | 0.845 | 0.944 | 0.264 | 0.242 | 0.283 | 0.231 | 0.97 | 0.973 | 0.982 | 0.915 | 0.918 | 0.503 | 0.444 | 0.449 | 0.44 |
| RERF-LC-KJ | 1.13 | 1.3 | 1.05 | 0.923 | 0.892 | 0.553 | 0.559 | 0.619 | 0.581 | 0.933 | 0.875 | 0.854 | 0.839 | 0.795 | 0.617 | 0.667 | 0.633 | 0.688 |
| SK-LU-1 | 1.33 | 1.14 | 1.15 | 0.921 | 0.718 | 0.166 | – | 0.0949 | 0.119 | 1.1 | 1.07 | 0.9 | 0.855 | 0.906 | 0.428 | 0.334 | 0.33 | 0.47 |
| SW 1573 | 1.1 | 0.96 | 0.938 | 0.709 | 0.949 | 0.452 | 0.535 | 0.459 | 0.315 | 0.828 | 0.973 | 0.826 | 0.841 | 0.551 | 0.314 | 0.372 | 0.255 | 0.262 |
